Measured values reported in patent US20110065715A1, “Nogo Receptor Binding Small Molecules to Promote Axonal Growth” (Yale University, priority 2007, published 2011).
“Also recorded” adds a separate entry of the source. Like-named read-outs stand apart in the source and are kept apart here.

Experiments:
[1] = tested on: embryonic day 13 or 14 chick DRG neurons; experiment: Neurite outgrowth assay, E13/E14 chick DRG neurons; assay type: cell-based, chicken; conditions: 20 μM; for neurite outgrowth compared to the DMSO control: E13 or E14 chick DRG, two to four hours
Protocol: (§1) To test the ability of the “hit” compounds to promote neurite outgrowth, a neurite outgrowth assay was performed using each of these compounds. Dorsal root ganglia (DRG) were removed from chicken embryos at embryonic day 13 or 14, dissociated by trituration after 30 min incubation in 0.5% collagenase, and plated on laminin-coated 96-well tissue culture plates in DMEM with 10% fetal bovine serum containing 20 μM of the test compound. After two to four hours of incubation, the cells were fixed in 4% formaldehyde in phosphate buffered saline (PBS), washed in PBS, and blocked for 1 hour in PBS with 0.1% triton X-100 and 10% goat serum. The cells were incubated in rabbit anti-beta-3-tubulin (1:500) in PBS overnight and then washed 3 times with PBS. The cells were then incubated in Alexa-fluor 488 goat anti-rabbit IgG (1:500) for 6 hrs, washed with PBS, and imaged at 10× with an ImagExpress automated microscope (Molecular Devices, Inc.). Neurite outgrowth was measured with AcuityExpress software (Molecular Devices, Inc.).

[2] = tested on: Nogo receptor:Nogo ligand (Nogo 66) interaction; experiment: ELISA assay of NgR:Nogo ligand interaction; assay type: binding
Protocol: In the ELISA assay, 96 well streptavidin coated plates were blocked overnight with PBS and 10 mg/ml bovine serum albumin (BSA) (200 μl). The wells were then coated for 1.5 hours with sonicated HBH (Hanks Balanced Salt Solution/0.1 M HEPES/1 mg/ml BSA) containing Nogo 66 (B66) (0.5 μl of 10 mM/10 ml HBH) (50 μl) and then washed 4 times with 200 μl of HBH. The solution containing the inhibitor compound (50 μl in HBH) was added along with 1% FcNgR solution in HBH (50 μl), and the solution was incubated for 2 hours. The wells were washed 5 times with HBH. Alkaline phosphatase (AP) conjugated mouse anti-rat antibody (1:2500) was added and the wells were then washed 5 times with HBH. Colorimetric alkaline phosphatase substrate was added for 30 minutes and the plate was read with the Perkin Elmer Victor 5 instrument. (FIG. 10A). […] (FIG. 10C).

[3] = tested on: Nogo receptor:Nogo ligand (Nogo 66) interaction; experiment: DELFIA assay of Fc-NgR:Ng66 interaction; assay type: binding
Protocol: ELISA and DELFIA assays were then performed to evaluate the ability of the small molecules that were identified as “hits” in the AlphaScreens to inhibit the interaction of NgR and Nogo ligand. In the DELFIA Assay, 96 well streptavidin coated plates were blocked overnight with PBS and 10 mg/ml bovine serum albumin (BSA) (200 μl). The wells were then coated for 1.5 hours with sonicated HBH (Hanks Balanced Salt Solution/0.1 M HEPES/1 mg/ml BSA) containing Nogo 66 (B66) (0.5 μl of 10 mM/10 ml HBH) (50 μl) and then washed 4 times with 200 μl of HBH. The solution containing the inhibitor compound (50 μl in HBH) was added along with 1% FcNgR solution in HBH (50 μl), and the solution was incubated for 2 hours. The wells were washed 5 times with HBH. Alkaline phosphatase (AP) conjugated mouse anti-rat antibody (1:2500) was added and the wells were then washed 5 times with DELFIA wash buffer. The Europium (Eu) anti-mouse antibody was then added in Perlin Elmer Assay, buffer (100 μg/ml) (150 μl) and the wells were again washed 5 times with DELFIA wash buffer. The enhancer solution was added (100 μl) and the plate was read with the Perkin Elmer Victor 5 instrument 15 minutes later. (FIG. 10B) The results from the DELFIA assay indicate that compounds HTS08871, KM08071, and 503749, as well as the positive control, NEP33, inhibit the Nogo receptor:Nogo ligand (Nogo 66) interaction. (FIGS. 10D and 11A-C).

[4] = tested on: embryonic day 8 (E8) chick DRG neurons; experiment: Neurite outgrowth assay, E8 chick DRG neurons (no Nogo receptor expressed); assay type: cell-based, chicken; conditions: Nogo receptor not yet expressed
Protocol: as §1
In another experiment to verify the mechanism of action, a neurite outgrowth assay was performed as described above except the Dorsal root ganglia (DRG) were removed from chicken embryos at embryonic day 8 instead of day 13. At day 8, Nogo receptor is not yet expressed in the DRG. The compounds KM, HTS, 555, 5470, 585 were administered as described above and neurite outgrowth was measured. […] (FIG. 21)

[5] = tested on: embryonic day 13 (E13) chick DRG neurons; experiment: Competition neurite outgrowth assay with soluble FcNgR; assay type: cell-based, chicken; conditions: for outgrowth promoting effect when coadministered with FcNgR: with 7.5 μM FcNgR, 3.5 hours
Protocol: as §1
To further verify the mechanism of how the compounds are promoting neurite outgrowth, a competition assay was performed. […] (FIG. 12B). compounds KM, HTS or 555 were then coadministered with 7.5 μM of FcNgR. […] (FIGS. 14A-B and 17B).

Fc-NgR:Ng66 interaction = experiment: AlphaScreen of Fc-NgR:Ng66 interaction; assay type: binding
Chain of Fc-NgR:Ng66 interaction (Q99M75 27-310 limits assumed): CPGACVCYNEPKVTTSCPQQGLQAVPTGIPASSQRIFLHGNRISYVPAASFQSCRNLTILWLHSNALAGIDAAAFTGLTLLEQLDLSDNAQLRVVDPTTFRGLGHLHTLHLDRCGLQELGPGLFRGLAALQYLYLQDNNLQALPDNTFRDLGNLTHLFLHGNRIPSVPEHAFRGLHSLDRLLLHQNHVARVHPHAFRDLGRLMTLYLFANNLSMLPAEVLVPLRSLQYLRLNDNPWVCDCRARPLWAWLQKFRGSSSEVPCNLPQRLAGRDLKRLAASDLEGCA
From the text: An AlphaScreen assay was used to screen for small molecule inhibitors of the Nogo receptor-Nogo ligand interaction. The AlphaScreen assay involves matching Alpha Donor (Streptavidin) and Acceptor beads (Protein A). (FIG. 1) These beads are coated with a layer of hydrogel to provide functional groups for bioconjugation. […] However, if a biological reaction brings the Alpha Donor and Acceptor beads into close proximity, upon laser excitation, a cascade of chemical reactions produces a greatly amplified signal. (FIG. 3) Upon laser excitation, a photosensitizer inside the Donor bead converts ambient oxygen to a more excited singlet state. The singlet state oxygen molecules diffuse to produce a chemiluminescent reaction in the Acceptor bead, leading to light emission. In the absence of a specific biological interaction, the singlet state oxygen molecules produced by the Donor bead go undetected without the close proximity of the Acceptor bead.
Beads conjugated to streptavidin were used to bind biotinylated Nogo 66 (Ng66) (the 66 amino acid inhibitory domain in the carboxyl region of Nogo ligand), and beads conjugated to Protein A were used to bind an Fc-Nogo receptor (NgR) fusion protein. (FIG. 2) By virtue of the interaction of Ng66 and Fc-NgR, the acceptor beads and donor beads were brought into proximity, yielding a signal upon excitation. […] (FIGS. 4 and 6). […]

CN(C)c1ccc(Cc2ccc(N(C)C)cc2)cc1 [BTB11222, N1,N1-dimethyl-4-[4-(dimethylamino)benzyl]aniline]
neurite outgrowth compared to the DMSO control [1]: promoted neurite outgrowth

N.N.[Cl][Pt][Cl] [Cisplatin]
inhibition of Nogo receptor:Nogo 66 interaction, ELISA [2]: inhibit

COc1ccc2c(c1)NC(c1ccc(N(C)C)cc1)c1cccn1-2 (centres unmarked) [HTS, 4′-(7-methoxy-4,5-dihydropyrrolo[1,2-a]quinoxalin-4-yl)-N,N-dimethylaniline]
neurite outgrowth compared to the DMSO control [1]: promoted neurite outgrowth
inhibition of Nogo receptor:Nogo 66 interaction signal, DELFIA [3]: dose dependent signal inhibition
inhibition of Nogo receptor:Nogo 66 interaction signal, DELFIA ([3]; listed as HTS08871): inhibit
effect on neurite outgrowth of day 8 DRGs [4]: no effect
neurite outgrowth in the absence of exogenous FcNgR [5]: promoted neurite outgrowth
outgrowth promoting effect when coadministered with FcNgR [5]: inhibited; also recorded: blocking

N#C/C(=C\c1ccc(C#Cc2ccccc2)cc1)C(=O)c1ccc(Cl)cc1 [KM, 2-(4-chlorobenzoyl)-3-[4-(2-phenyleth-1-ynyl)phenyl]acrylonitrile]
basal neurite outgrowth, E13 chick DRG neurons [1]: neurite outgrowth promoting effect
neurite outgrowth compared to the DMSO control [1]: promoted neurite outgrowth
inhibition of Nogo receptor:Nogo 66 interaction signal, DELFIA [3]: dose dependent signal inhibition
inhibition of Nogo receptor:Nogo 66 interaction signal, DELFIA ([3]; listed as KM08071): inhibit
effect on neurite outgrowth of day 8 DRGs [4]: no effect
neurite outgrowth in the absence of exogenous FcNgR [5]: promoted neurite outgrowth
outgrowth promoting effect when coadministered with FcNgR [5]: inhibited; also recorded: blocking

Cc1nccc(-c2cccc(N/N=C(\C#N)C(=O)c3ccc(Cl)cc3)c2)n1 [KMO2502]
neurite outgrowth compared to the DMSO control [1]: inhibited neurite outgrowth

N#Cc1ccc(Cn2c(=O)sc3ccccc32)cc1 [compound 535, 4-[(2-oxo-1,3-benzothiazol-3(2H)-yl)methyl]benzonitrile]
neurite outgrowth compared to the DMSO control [1]: promoted neurite outgrowth

CN(C)c1ccc(C2C=Cc3ccccc3N2C(=O)c2ccccc2)cc1 (centres unmarked) [compound 536, 4-(1-benzoyl-1,2-dihydro-2-quinolinyl)-N,N-dimethylaniline]
neurite outgrowth compared to the DMSO control [1]: promoted neurite outgrowth

CCOC(=O)C1=C(C)N=C2SCC(=O)N2C1c1ccc(N(C)C)cc1 (centres unmarked) [compound 555, ethyl 5-[4-(dimethylamino)phenyl]-7-methyl-3-oxo-2,3-dihydro-5H-[1,3]thiazolo[3,2-a]pyrimidine-6-carboxylate]
basal neurite outgrowth, E13 chick DRG neurons [1]: neurite outgrowth promoting effect
neurite outgrowth compared to the DMSO control [1]: promoted neurite outgrowth
effect on neurite outgrowth of day 8 DRGs [4]: no effect
neurite outgrowth in the absence of exogenous FcNgR [5]: promoted neurite outgrowth
outgrowth promoting effect when coadministered with FcNgR [5]: inhibited; also recorded: blocking

Cc1oc2ccc(O)cc2c1C(=O)c1ccc(Cl)cc1 [compound 585, (4-chlorophenyl)(5-hydroxy-2-methyl-1-benzofuran-3-yl)methanone]
neurite outgrowth compared to the DMSO control [1]: promoted neurite outgrowth
basal neurite outgrowth, E14 chick DRG neurons [1]: neurite outgrowth promoting effect
effect on neurite outgrowth of day 8 DRGs [4]: no effect

CN1C(=O)C(O)(CC(=O)c2ccc(Cl)cc2)c2ccccc21 (centres unmarked) [compound 592, 3-[2-(4-chlorophenyl)-2-oxoethyl]-3-hydroxy-1-methyl-1,3-dihydro-2H-indol-2-one]
neurite outgrowth compared to the DMSO control [1]: inhibited neurite outgrowth

CCN1C(=O)C(O)(CC(=O)c2ccc(Cl)cc2)c2ccccc21 (centres unmarked) [compound 664, 3-[2-(4-chlorophenyl)-2-oxoethyl]-1-ethyl-3-hydroxy-1,3-dihydro-2H-indol-2-one]
neurite outgrowth compared to the DMSO control [1]: inhibited neurite outgrowth

CCc1cccc2c(C(C)=O)cn(Cc3ccc(C#N)cc3)c12 [compound 794, 4-[(3-acetyl-7-ethyl-1H-indol-1-yl)methyl]benzonitrile]
neurite outgrowth compared to the DMSO control [1]: promoted neurite outgrowth

O=C(c1ccc(Cl)cc1)c1coc2ccc(O)cc12 [compound 5470, (4-chlorophenyl)(5-hydroxy-1-benzofuran-3-yl)methanone]
neurite outgrowth compared to the DMSO control [1]: promoted neurite outgrowth
basal neurite outgrowth, E14 chick DRG neurons [1]: neurite outgrowth promoting effect
effect on neurite outgrowth of day 8 DRGs [4]: no effect

Cc1ccc2occ(C(=O)c3ccc(Cl)cc3)c(=O)c2c1 [compound 5472, 3-(4-chlorobenzoyl)-6-methyl-4H-chromen-4-one]
neurite outgrowth compared to the DMSO control [1]: promoted neurite outgrowth

O=C(CC1(O)C(=O)Nc2ccc(Br)cc21)c1ccc(Cl)cc1 (centres unmarked) [compound 5475, 5-bromo-3-[2-(4-chlorophenyl)-2-oxoethyl]-3-hydroxy-1,3-dihydro-2H-indol-2-one]
neurite outgrowth compared to the DMSO control [1]: inhibited neurite outgrowth

Acetyl-RIYKSVLQAVQKTDEGHPFKAYLELEITLSQEQ-Amide (Ac-RIYKSVLQAVQKTDEGHPFKAYLELEITLSQEQ-NH2) [NEP33]
interference with Ng66:Fc-NgR interaction (AlphaScreen signal) (Fc-NgR:Ng66 interaction): reducing signal
inhibition of interaction of Ng66 and Fc-NgR (AlphaScreen signal) (Fc-NgR:Ng66 interaction; 20 hours incubation, concentration between 1.25 μM and 20 μM, beads 5 μg/ml): inhibited
inhibition of Nogo receptor:Nogo 66 interaction signal, DELFIA [3]: inhibit
inhibition of Nogo receptor:Nogo 66 interaction, ELISA [2]: inhibit
